Test results from patent US20250228239A1, “MOLECULES HAVING PESTICIDAL UTILITY, AND INTERMEDIATES, COMPOSITIONS, AND PROCESSES, RELATED THERETO” (priority 2024, published 2025).

What was measured:
[1] = tested on: Beet Armyworm (Spodoptera exigua, LAPHEG); experiment: Bioassays on Beet Armyworm (BAW), 128-well diet tray assay; format: in vivo; settings: Spodoptera exigua; Table ABC: Biological Results; species BAW; read-out: BAW
Outline: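 Larvae at second instar are exposed on dried, compound-treated diet (50 μg/cm^2, delivered in 90:10 acetone-water) in eight replicate wells. After five to seven days at 25° C., 14:10 light-dark, percent mortality in each well is scored and the eight wells averaged.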

[2] = tested on: Cabbage Looper (Trichoplusia ni, TRIPNI); experiment: Bioassays on Cabbage Looper (CL), 128-well diet tray assay; format: in vivo; settings: Trichoplusia ni; Table ABC: Biological Results; species CL; read-out: CL
Outline: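 Diet tray, 2nd instar, 1–5 larvae/well; 50 μg/cm^2 compound surface-applied (acetone:water 90:10), dried; 8 wells/treatment; 25° C, 14:10 L:D, 5–7 d; % mortality, mean of 8 wells.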

SMILES | pest or weed control at 50 µg/cm2 [1] [%] | pest or weed control at 50 µg/cm2 [2] [%]
O=C(Nc1ccc(F)c(O)c1F)c1cc(NC(=O)[C@H]2[C@H](c3cc(Cl)cc(Cl)c3)C2(Cl)Cl)ccc1Cl (relative stereo) [F1203, trans-2-chloro-5-(2,2-dichloro-3-(3,5-dichlorophenyl)cyclopropane-1-carboxamido)-N-(2,4-difluoro-3-hydroxyphenyl)benzamide] | 0 to 50 | 50 to 100
O=C(Nc1ccccc1)c1cc(NC(=O)[C@H]2[C@H](c3ccc(F)c(Cl)c3)C2(Cl)Cl)cc(F)c1F (relative stereo) [F1207, trans-5-(2,2-Dichloro-3-(3-chloro-4-fluorophenyl)cyclopropane-1-carboxamido)-2,3-difluoro-N-phenylbenzamide] | 50 to 100 | 50 to 100
O=C(Nc1ccc(F)cc1)c1cc(NC(=O)[C@H]2[C@H](c3ccc(F)c(Cl)c3)C2(Cl)Cl)cc(F)c1F (relative stereo) [F1208, trans-5-(2,2-Dichloro-3-(3-chloro-4-fluorophenyl)cyclopropane-1-carboxamido)-2,3-difluoro-N-(4-fluorophenyl)benzamide] | 50 to 100 | 50 to 100
O=C(Nc1ccc(F)cc1F)c1cc(NC(=O)[C@H]2[C@H](c3ccc(F)c(Cl)c3)C2(Cl)Cl)cc(F)c1F (relative stereo) [F1209, trans-5-(2,2-Dichloro-3-(3-chloro-4-fluorophenyl)cyclopropane-1-carboxamido)-N-(2,4-difluorophenyl)-2,3-difluorobenzamide] | 50 to 100 | 50 to 100
CC(=O)Nc1ccc(NC(=O)c2cc(NC(=O)[C@H]3[C@H](c4ccc(F)c(Cl)c4)C3(Cl)Cl)cc(F)c2F)cc1 (relative stereo) [F1210, trans-N-(4-Acetamidophenyl)-5-(2,2-dichloro-3-(3-chloro-4-fluorophenyl)cyclopropane-1-carboxamido)-2,3-difluorobenzamide] | 50 to 100 | 50 to 100
CC(C)(C)OC(=O)N(C(=O)OC(C)(C)C)c1c(F)ccc(NC(=O)c2cc(NC(=O)[C@H]3[C@H](c4ccc(F)c(Cl)c4)C3(Cl)Cl)cc(F)c2F)c1F (relative stereo) [F1211, trans-tert-Butyl-N-tert-butoxycarbonyl-N-[3-[[5-[[2,2-dichloro-3-(3-chloro-4-fluorophenyl)cyclopropanecarbonyl]amino]-2,3-difluorobenzoyl]amino]-2,6-difluorophenyl]carbamate] | 50 to 100 | 50 to 100
Cc1cc(NC(=O)[C@H]2[C@H](c3ccc(F)c(Cl)c3)C2(Cl)Cl)cc(C(=O)Nc2ccc(F)c(N)c2F)c1Cl (relative stereo) [F1222, trans-N-(3-Amino-2,4-difluorophenyl)-2-chloro-5-(2,2-dichloro-3-(3-chloro-4-fluorophenyl)cyclopropane-1-carboxamido)-3-methylbenzamide] | 50 to 100 | 50 to 100
Cc1c(Cl)cc(NC(=O)[C@H]2[C@H](c3ccc(F)c(Cl)c3)C2(Cl)Cl)cc1C(=O)Nc1ccc(F)c(N)c1F (relative stereo) [F1223, trans-N-(3-Amino-2,4-difluorophenyl)-3-chloro-5-(2,2-dichloro-3-(3-chloro-4-fluorophenyl)cyclopropane-1-carboxamido)-2-methylbenzamide] | 50 to 100 | 50 to 100
Cc1cc(O)ccc1NC(=O)c1cc(NC(=O)[C@H]2[C@H](c3cc(Cl)cc(Cl)c3)C2(Cl)Cl)ccc1Cl (relative stereo) [F1224, trans-2-chloro-5-(2,2-dichloro-3-(3,5-dichlorophenyl)cyclopropane-1-carboxamido)-N-(4-hydroxy-2-methylphenyl)benzamide] | 50 to 100 | 50 to 100
Nc1c(F)ccc(NC(=O)c2cc(NC(=O)[C@H]3[C@H](c4ccc(F)c(Cl)c4)C3(Cl)Cl)cc(C(F)(F)F)c2Cl)c1F (relative stereo) [F1225, trans-N-(3-Amino-2,4-difluorophenyl)-2-chloro-5-(2,2-dichloro-3-(3-chloro-4-fluorophenyl)cyclopropane-1-carboxamido)-3-(trifluoromethyl)benzamide] | 50 to 100 | 50 to 100
COc1c(F)cc(NC(=O)[C@H]2[C@H](c3ccc(F)c(Cl)c3)C2(Cl)Cl)cc1C(=O)Nc1ccc(F)c(N)c1F (relative stereo) [F1226, trans-N-(3-Amino-2,4-difluorophenyl)-5-(2,2-dichloro-3-(3-chloro-4-fluoro-phenyl)cyclopropane-1-carboxamido)-3-fluoro-2-methoxybenzamide] | 50 to 100 | 50 to 100
COc1c(Cl)cc(NC(=O)[C@H]2[C@H](c3ccc(F)c(Cl)c3)C2(Cl)Cl)cc1C(=O)Nc1ccc(F)cc1 (relative stereo) [F1235, trans-3-Chloro-5-(2,2-dichloro-3-(3-chloro-4-fluorophenyl)cyclopropane-1-carboxamido)-N-(4-fluorophenyl)-2-methoxybenzamide] | 50 to 100 | 50 to 100
COc1c(Cl)cc(NC(=O)[C@H]2[C@H](c3ccc(F)c(Cl)c3)C2(Cl)Cl)cc1C(=O)Nc1ccc(F)cc1F (relative stereo) [F1236, trans-3-Chloro-5-(2,2-dichloro-3-(3-chloro-4-fluorophenyl)cyclopropane-1-carboxamido)-N-(2,4-difluorophenyl)-2-methoxybenzamide] | 50 to 100 | 50 to 100
Cc1cc(NC(=O)c2cc(NC(=O)[C@H]3[C@H](c4cc(Cl)cc(Cl)c4)C3(Cl)Cl)ccc2Cl)c(C)cc1N (relative stereo) [F1257, trans-N-(4-Amino-2,5-dimethylphenyl)-2-chloro-5-(2,2-dichloro-3-(3,5-dichlorophenyl)cyclopropane-1-carboxamido)benzamide] | 50 to 100 | 50 to 100
Nc1c(F)ccc(NC(=O)c2cc(NC(=O)[C@H]3[C@@H](c4cc(Cl)cc(S(F)(F)(F)(F)F)c4)C3(Cl)Cl)ccc2Cl)c1F (relative stereo) [F1260, cis-N-(3-Amino-2,4-difluorophenyl)-2-chloro-5-(2,2-dichloro-3-(3-chloro-5-(pentafluoro-λ^6-sulfanyl)phenyl)cyclopropane-1-carboxamido)benzamide] | 50 to 100 | 50 to 100
COC(=O)c1c(F)ccc(NC(=O)c2cc(NC(=O)[C@H]3[C@H](c4cc(Cl)cc(Cl)c4)C3(Cl)Cl)ccc2Cl)c1F (relative stereo) [F1265, trans-Methyl 3-(2-chloro-5-(2,2-dichloro-3-(3,5-dichlorophenyl)cyclopropane-1-carboxamido)benzamido)-2,6-difluorobenzoate] | 50 to 100 | 50 to 100
Cc1c(F)cc(NC(=O)[C@H]2[C@H](c3ccc(F)c(Cl)c3)C2(Cl)Cl)cc1C(=O)Nc1ccc(F)c(N)c1F (relative stereo) [F1286, trans-N-(3-Amino-2,4-difluorophenyl)-5-(2,2-dichloro-3-(3-chloro-4-fluorophenyl)cyclopropane-1-carboxamido)-3-fluoro-2-methylbenzamide] | 50 to 100 | 50 to 100
O=C(Nc1ccc(F)c(NC(=O)C(F)F)c1F)c1cc(NC(=O)[C@H]2[C@H](c3cccc(S(F)(F)(F)(F)F)c3)C2(Cl)Cl)ccc1Cl (relative stereo) [F1293, trans-2-Chloro-5-(2,2-dichloro-3-(3-(pentafluoro-λ^6-sulfanyl)phenyl)cyclopropane-1-carboxamido)-N-(3-(2,2-difluoroacetamido)-2,4-difluorophenyl)benzamide] | 50 to 100 | 50 to 100
O=C(Nc1ccc(Br)cc1F)c1cc(NC(=O)[C@H]2[C@H](c3cc(Cl)cc(Cl)c3)C2(Cl)Cl)ccc1Cl (relative stereo) [F1306, trans-N-(4-Bromo-2-fluorophenyl)-2-chloro-5-(2,2-dichloro-3-(3,5-dichlorophenyl)cyclopropane-1-carboxamido)benzamide] | 50 to 100 | 50 to 100
O=C(Nc1ccc(F)c(Br)c1F)c1cc(NC(=O)[C@H]2[C@H](c3cc(Cl)cc(Cl)c3)C2(Cl)Cl)ccc1Cl (relative stereo) [F1307, trans-N-(3-Bromo-2,4-difluorophenyl)-2-chloro-5-(2,2-dichloro-3-(3,5-dichlorophenyl)cyclopropane-1-carboxamido)benzamide] | 50 to 100 | 50 to 100
O=C(Nc1cc(Br)c(F)cc1F)c1cc(NC(=O)[C@H]2[C@H](c3cc(Cl)cc(Cl)c3)C2(Cl)Cl)ccc1Cl (relative stereo) [F1308, trans-N-(5-Bromo-2,4-difluorophenyl)-2-chloro-5-(2,2-dichloro-3-(3,5-dichlorophenyl)cyclopropane-1-carboxamido)benzamide] | 50 to 100 | 50 to 100
C=C(F)c1cc(F)cc(F)c1NC(=O)c1cc(NC(=O)[C@H]2[C@H](c3cc(Cl)cc(Cl)c3)C2(Cl)Cl)ccc1Cl (relative stereo) [F1322, trans-2-Chloro-5-(2,2-dichloro-3-(3,5-dichlorophenyl)cyclopropane-1-carboxamido)-N-(2,4-difluoro-6-(1-fluorovinyl)phenyl)benzamide] | 50 to 100 | 50 to 100
